The values below come from paper PMC12217463, “Functional and structural analyses of amino acid sequence variation in PDC β-lactamase reveal different mechanistic pathways toward cefiderocol resistance in Pseudomonas aeruginosa” (Antimicrobial Agents and Chemotherapy, 2025).

The target in one assay is PDC L293P (Pseudomonas aeruginosa, UniProt P24735, L320P). In words: Steady-state kinetics of purified β-lactamase. The note with it: for kcat: direct hydrolysis at substrate concentration at least three times the Km.
Assay [1] deals with E. cloacae AmpC variant with a ∆A294-P295 deletion. Also on record: method as in PMID 32284381. The settings on record: relative to the parent enzyme; cited from earlier work.
Assay [2] has as its system PAO ΔpiuC producing PDC S226ins. In words: Cefiderocol MIC, iron uptake-deficient host. The format is cell-based. The settings on record: Pseudomonas aeruginosa. The text has this:
(§1) We took advantage of a previously constructed and characterized laboratory collection of recombinant P. aeruginosa PAO1 isolates expressing different blaPDC variants, but specifically enriched for this work with additional variants, following the previously described methodology ([17]). […] The final collection comprised 40 recombinant isolates (20 in PAO1 and 20 in PAO ΔpiuC) producing the wild-type PDC-1 variant from PAO1 and 19 derivatives carrying specific amino acid substitutions previously associated with the development of resistance to ceftazidime/avibactam, ceftolozane/tazobactam, or cefiderocol: T70I, F121L, P153L, G156D, A200T, G202S, ΔG202-E219, G214R, P215L, P215S, ΔP215-G222, D217N, E219K, E219G, E219D, S226ins, L293P, F121L + E219K, and F121L + G222S.
(§2) The MICs of ceftazidime, ceftazidime/avibactam, ceftolozane/tazobactam, cefepime, and cefiderocol were determined in triplicate, for all isolates, by reference broth microdilution assays. Avibactam and tazobactam were fixed at 4 mg/L. All assays were performed using cation-adjusted Mueller-Hinton broth (CAMHB), except for cefiderocol, which was determined in all cases using iron-depleted CAMHB, prepared according to CLSI M100 guidelines ([40]). EUCAST v.15.0 clinical breakpoints and guidelines (http://www.eucast.org/clinical_breakpoints/) were used for reference purposes. Reference strains Escherichia coli ATCC 25922, Klebsiella pneumoniae ATCC 700603, and P. aeruginosa ATCC 27853 were used as controls.

Another assay deals with PAO ΔpiuC. Briefly: Cefiderocol MIC, iron uptake-deficient host. The format is cell-based. The settings on record: Pseudomonas aeruginosa.
Source text: as §1, §2

For assay [3], the system named is PAO ΔpiuC producing PDC L293P. Briefly: Cefiderocol MIC, iron uptake-deficient host. The format is cell-based. The settings on record: Pseudomonas aeruginosa.
Source text: as §1, §2

For assay [4], the system named is PAO ΔpiuC producing PDC G202S. Briefly: Cefiderocol MIC, iron uptake-deficient host. The settings on record: Pseudomonas aeruginosa. Type of assay: cell-based.
Source text: as §1, §2

Assay [5] concerns PAO ΔpiuC producing PDC F121L + G220S. Briefly: Cefiderocol MIC, iron uptake-deficient host. Type of assay: cell-based. The note with it: Pseudomonas aeruginosa.
Source text: as §1, §2

In assay [6] the test system is PAO ΔpiuC producing PDC F121L. Briefly: Cefiderocol MIC, iron uptake-deficient host. Type of assay: cell-based. The settings on record: Pseudomonas aeruginosa.
Source text: as §1, §2

Assay [7] relates to PAO ΔpiuC producing PDC-1 (WT). Briefly: Cefiderocol MIC, iron uptake-deficient host. The format is cell-based. The note with it: Pseudomonas aeruginosa.
Source text: as §1, §2

Assay [8] has as its system PAO ΔpiuC producing PDC E219K. In words: Cefiderocol MIC, iron uptake-deficient host. The format is cell-based. The note with it: Pseudomonas aeruginosa.
Source text: as §1, §2

In assay [9] the test system is PAO ΔpiuC producing PDC A200T. In words: Cefiderocol MIC, iron uptake-deficient host. The format is cell-based. The settings on record: Pseudomonas aeruginosa.
Source text: as §1, §2

The subject of assay [10] is PAO ΔpiuC producing PDC F121L + E219K. Briefly: Cefiderocol MIC, iron uptake-deficient host. Type of assay: cell-based. The settings on record: Pseudomonas aeruginosa.
Source text: as §1, §2

The test system of assay [11] is PAO ΔpiuC producing PDC ∆P215-G222. Briefly: Cefiderocol MIC, iron uptake-deficient host. Type of assay: cell-based. The settings on record: Pseudomonas aeruginosa.
Source text: as §1, §2

Assay [12] has as its system PAO ΔpiuC producing PDC G156D. In words: Cefiderocol MIC, iron uptake-deficient host. Type of assay: cell-based. The settings on record: Pseudomonas aeruginosa.
Source text: as §1, §2

Assay [13] concerns PAO ΔpiuC producing PDC T70I. Briefly: Cefiderocol MIC, iron uptake-deficient host. Type of assay: cell-based. The note with it: Pseudomonas aeruginosa.
Source text: as §1, §2

Assay [14] relates to PAO ΔpiuC producing PDC D217N. In words: Cefiderocol MIC, iron uptake-deficient host. Type of assay: cell-based. The note with it: Pseudomonas aeruginosa.
Source text: as §1, §2

Converted amounts (≈) assume the structure as drawn.

In general, Km refers to the substrate concentration at which the rate is half of its maximum. The term kcat denotes the number of substrate molecules converted per active site and unit of time at saturation. In general, MIC refers to the lowest concentration found to suppress growth. Turning to `CC(C)(O/N=C(\C(=O)N[C@@H]1C(=O)N2C(C(=O)[O-])=C(C[N+]3(CCNC(=O)c4ccc(O)c(O)c4Cl)CCCC3)CS[C@H]12)c1csc(N)n1)C(=O)O` [FDC, cefiderocol], the “improvement in substrate binding affinity (Km decrease)” value at PDC L293P (PDC L293P relative to PDC-1) is given as “≈ 32 fold”. In addition, at PDC L293P (PDC L293P, antibiotics: determined as Ki app with nitrocefin as reporter substrate, 10 mM PBS, pH 7.4, room temperature), the Km came to 2.69 ± 0.1 µM. The kcat at PDC L293P (PDC L293P, 10 mM PBS, pH 7.4, room temperature, listed as Cefiderocol) was 0.0036 ± 0.0001 s⁻¹; on PDC L293P (PDC L293P, 10 mM PBS, pH 7.4, room temperature, listed as cefiderocol) it was 0.0036 s⁻¹. On PDC L293P (ratio of kcat/Km (fold change in catalytic efficiency)), the “Ratio for PDC L293P/PDC-1” value is 33.75. The “increase in catalytic efficiency” value in [1] is given as “≈ 19 fold”. The MIC in assay [2] was 8 µg/mL (≈ 10.6 µM); against PAO ΔpiuC, 2 µg/mL (≈ 2.66 µM); in assay [3] it was 32 µg/mL (≈ 42.5 µM); in assay [4], 8 µg/mL (≈ 10.6 µM); in assay [5] it was 8 µg/mL (≈ 10.6 µM); in [6], 8 µg/mL (≈ 10.6 µM). Moreover, the MIC was determined as 4 µg/mL (≈ 5.32 µM) in assay [7]; 32 µg/mL (≈ 42.5 µM) in [8]; 8 µg/mL (≈ 10.6 µM) in [9]; 64 µg/mL (≈ 85.1 µM) in assay [10]; 32 µg/mL (≈ 42.5 µM) in assay [11]; 8 µg/mL (≈ 10.6 µM) in assay [12]. Besides, the MIC in assay [13] and in assay [14] was 8 µg/mL (≈ 10.6 µM) throughout.
